In patent US5202331A, “Therapeutic agent for dysuria comprising alpha-phenyl-alpha-pyridylalkanoic acid derivatives” (Fujisawa Pharmaceutical Co., Ltd., priority 1990, dated 1993):
Values after ≈ are worked out from the molar mass of the structure shown.

Legend:
[1] = system: isolated guinea pig bladder detrusor muscle; assay: Anticholinergic effect in the isolated guinea pig bladder (carbamylcholine-induced contraction); parameters: species or system male guinea pigs; settings: Cavia porcellus, contractions induced with 10 μM carbamylcholine, Krebs solution
Method: Male guinea pigs weighing 400-700 g were fainted and killed by a blow on the occipital region. A bladder detrusor muscle specimen (15-20 mm long × 5 mm thick) was prepared by longitudinal section and suspended in a Magnus bath containing Krebs solution which was aerated with 95% O2 -5% CO2. Isotonic contractions were recorded through a tension transducer. The buffer solution was changed five times at 15-minute intervals. The equilibration time was […]. Contractions were induced with 10 μM carbamylcholine, and after the contractions became steady, the test compound was added to the Magnus bath and its anticholinergic effect was investigated.

[2] = system: voiding reflex bladder contraction; assay: Effect on voiding reflex bladder contraction in rats with the ureter ligated; type: in vivo; settings: Rattus norvegicus, iv, voiding reflex rhythmic bladder contraction, into the jugular vein, urethane-anesthetized male S.D rats
Excerpt: A midline incision was made in the abdomen of male S.D rats (body weight 250-350 g) under urethane (1.0 g/kg i.p.) anesthesia. A small incision was made in the bladder dome and one end of a polyethylene tube was inserted and, then, ligated. To the other end of the polyethylene tube was attached a three-way cock. An infusion pump was connected to one of the joints and a transducer was connected to another joint for measurement of the intravesical pressure. Physiological saline was then infused continuously into the bladder. After confirmation of steady voiding reflexes, the ureter was ligated immediately before the next voiding and the infusion of physiological saline was stopped. After the resulting rhythmic contractions became stable, the test compound was administered into the jugular vein to evaluate its effect.

Acute toxicity test = assay: Acute toxicity test; parameters: species or system rats (Crj:CD(SD) strain); settings: rat, in vivo, 14 days observation, probit method
Method: Five rats (Crj:CD(SD) strain) of either sex were used per group. Solutions of the test compound were prepared as shown below and administered to rats intravenously or subcutaneously. The rats were then observed for 14 days. The LD50 values were calculated by the probit method. (Preparation of test solutions)
The test compound was dissolved in hydrochloric acid and the solution was adjusted to pH 6-7 with sodium hydrogen carbonate and diluted with physiological saline to the required concentrations.

[3] = system: urinary bladder contraction (hyperactive bladder, detrusor hyperreflexia); assay: Inhibition of urinary bladder contraction in the pressure-loaded hyperactive bladder model in rats; type: in vivo; settings: Rattus norvegicus, intravenous, urethane-anesthetized male S.D. rats, hydrostatic pressure about 10 mmHg
Method: Male S.D. rats weighing 240-450 g were anesthetized with urethane (1.0 g/kg) s.c.. The urinary bladder was then exposed through a midline incision in the abdomen and the intravesical pressure was recorded. Thus, a balloon attached to one end of a stainless steel tube (1.2 mm in outer diameter, 5 cm in length) was inserted into the bladder through a small incision made in the bladder dome, while the other end of the tube was connected to a pressure transducer. The ureter was ligated and cut and a polyethylene cannula was inserted from the proximal cut end to drain off the urine.
Hyperactive bladder (detrusor hyperreflexia) was induced by water filling of the bladder. A hydrostatic pressure of about 10 mmHg was applied to the balloon in the bladder.
When the contractile response of the bladder to water pressure loading became steady, the test compound was administered intravenously.

Q: Which IC50 [1] does the source give for `C[C@H](C[C@@](C(N)=O)(c1ccccc1)c1ccccn1)N(C)C` (relative stereo) [test compound, (±)-(2R*,4R*)-4-Dimethylamino-2-phenyl-2-(2-pyridyl)-valeramide] here?
A: Its IC50 is 0.6 µg/mL (≈ 2.02 µM).

Q: What about the ED50 [2] of the same compound?
A: Its ED50 is 0.56 mg/kg.

Q: And the LD50 at 336 h (Acute toxicity test; iv, Female)?
A: Its LD50 at 336 h is 42.3 mg/kg.

Q: And the LD50 at 336 h (Acute toxicity test; iv, Male)?
A: Its LD50 at 336 h is 47.2 mg/kg.

Q: And the LD50 at 336 h (Acute toxicity test; sc, Female)?
A: The LD50 at 336 h was 915 mg/kg.

Q: What about the LD50 at 336 h (Acute toxicity test; sc, Male) of the same compound?
A: The LD50 at 336 h was 922 mg/kg.

Q: What about the ED30 [3] of the same compound?
A: Its ED30 is 0.09 mg/kg.
